Measurements as given in PMC11352859, “Functionalized Congeners of 2H-Chromene P2Y6 Receptor Antagonists” (Cells, 2024).
“And” between values parts separate entries of the source, which are not always exact repeats. Identical values can stand only once. Blank lines part the entries; values can stand above or below the molecule they belong to.

Columns and labels:
hP2Y6R = molecular target: T1, hP2Y6R (Homo sapiens, UniProt Q15077); assay: UDP (100 nM)-induced Ca2+ mobilization in hP2Y6R stably transfected 1321N1 astrocytoma cells; type: cell-based; details: for IC50: UDP 100 nM, 3–4 independent triplicate determinations, read-out: IC50, hP2Y6R (Mean ± SEM)
T1 construct: expressed in transfected cells
Procedure: To screen for P2Y6R antagonist activity, PLC-mediated calcium mobilization assays were carried out using the recombinant human P2Y6R stably expressed in 1321N1 astrocytoma cells (hP2Y6R-1321N1) according to the previously published method. Briefly, the hP2Y6R-1321N1 cells were seeded on 96-well black plates and incubated overnight. The antagonists were pretreated along with the FLIPR dye (Calcium 6 assay kit, Molecular Devices, San Jose, CA, USA) containing 5 mM probenecid for 45 min, prior to agonist addition followed by an immediate intracellular Ca^2+ measurement. […] Here, probenecid was used as an organic anion transporter inhibitor to prevent the efflux of the dye into the extracellular environment. During incubation, the membrane permeable dye enters the cytoplasm and cleaves the acetoxymethyl protection to enable Ca^2+ binding. When the P2Y6R was activated by UDP, the increased calcium concentration was directly measured by intracellular changes in the fluorescence intensity with a Fluorescent Imaging Plate Reader (FLIPR^TETRA, Molecular Devices, San Jose, CA, USA).

[1] = system: 45 target sites (receptors, channels, and transporters); assay: PDSP off-target binding screen at 45 target sites; parameters: species or system human; details: PDSP binding assays
Excerpt: (§1) Table S2. Off-target screening (to replace table later). We thank Dr. Bryan L. Roth (Univ. North Carolina at Chapel Hill) and National Institute of Mental Health's Psychoactive Drug Screening Program (Contract # HHSN-271-2008-00025-C) for screening data. Reference: Besnard et al.
(§2) Procedures: https://pdsp.unc.edu/pdspweb/content/UNC-CH%20Protocol%20Book.pdf […]
(§3) nucleosides were found at the following sites (human unless noted): 5HT1A, 5HT1B, 5HT1D, […]
(§4) β3, BZP rat brain site, D1, D2, D3, D4, D5, GABAA, H1, H2, H3, H4, M1, M2, M5, δ-opioid receptor (DOR), κ-opioid receptor (KOR), μ-opioid receptor (MOR), σ1, σ2, DAT, NET, SERT. Ki values […]
(§5) Compound # PDSP # Receptor LogKi Ki (nM)

α2A = molecular target: T2, α2A (Homo sapiens, UniProt P08913); assay: PDSP binding assay, α2A; details: PDSP, mean, n = 2; read-out: Ki, α2A
T2 construct: NIMH Psychoactive Drug Screening Program (PDSP)
T2 sequence (P08913 1-465): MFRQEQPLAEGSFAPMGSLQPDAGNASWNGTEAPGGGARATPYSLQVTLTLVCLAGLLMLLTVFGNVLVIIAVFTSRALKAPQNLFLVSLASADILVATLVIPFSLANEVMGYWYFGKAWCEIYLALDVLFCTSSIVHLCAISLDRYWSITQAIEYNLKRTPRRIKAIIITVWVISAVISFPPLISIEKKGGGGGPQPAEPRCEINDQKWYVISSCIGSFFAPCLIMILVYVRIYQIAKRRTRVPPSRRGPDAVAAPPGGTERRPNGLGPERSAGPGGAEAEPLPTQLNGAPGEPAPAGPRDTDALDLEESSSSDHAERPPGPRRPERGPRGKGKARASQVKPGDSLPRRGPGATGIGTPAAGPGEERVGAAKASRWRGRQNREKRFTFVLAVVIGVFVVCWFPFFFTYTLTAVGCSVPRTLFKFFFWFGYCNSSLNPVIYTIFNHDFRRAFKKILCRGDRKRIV
Excerpt: as §1, §2, §3, §4, §5

hP2Y14R = molecular target: T3, hP2Y14R (Homo sapiens, UniProt Q15391); assay: whole-cell binding of fluorescent antagonist MRS4174 in CHO-hP2Y14R cells (flow cytometry); details: CHO-hP2Y14, competitive binding, flow cytometer
T3 construct: expressed in transfected cells
T3 sequence (Q15391 1-338): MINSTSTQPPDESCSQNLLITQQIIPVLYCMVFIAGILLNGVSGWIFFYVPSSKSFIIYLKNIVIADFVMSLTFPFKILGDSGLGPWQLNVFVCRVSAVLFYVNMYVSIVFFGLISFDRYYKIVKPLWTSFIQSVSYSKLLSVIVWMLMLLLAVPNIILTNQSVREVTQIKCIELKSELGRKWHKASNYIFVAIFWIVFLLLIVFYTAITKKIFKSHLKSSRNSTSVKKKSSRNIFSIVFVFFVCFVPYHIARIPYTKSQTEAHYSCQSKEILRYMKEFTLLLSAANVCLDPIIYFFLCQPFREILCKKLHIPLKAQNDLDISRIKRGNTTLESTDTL

D5 = molecular target: T4, D5 (Homo sapiens, UniProt P21918); assay: PDSP binding assay, D5; details: PDSP, mean, n = 2; read-out: Ki, D5
T4 construct: NIMH Psychoactive Drug Screening Program (PDSP)
Excerpt: as §1, §2, §3, §4, §5

5-HT1D = molecular target: T5, 5-HT1D (Homo sapiens, UniProt P28221); assay: PDSP binding assay, 5-HT1D; details: PDSP, mean, n = 2; read-out: Ki, 5-HT1D
T5 construct: NIMH Psychoactive Drug Screening Program (PDSP)
Excerpt: as §1, §2, §3, §4, §5

α2B = molecular target: T6, α2B (Homo sapiens, UniProt P18089); assay: PDSP binding assay, α2B; details: mean, n = 2
T6 construct: NIMH Psychoactive Drug Screening Program (PDSP)
T6 sequence (P18089 1-450): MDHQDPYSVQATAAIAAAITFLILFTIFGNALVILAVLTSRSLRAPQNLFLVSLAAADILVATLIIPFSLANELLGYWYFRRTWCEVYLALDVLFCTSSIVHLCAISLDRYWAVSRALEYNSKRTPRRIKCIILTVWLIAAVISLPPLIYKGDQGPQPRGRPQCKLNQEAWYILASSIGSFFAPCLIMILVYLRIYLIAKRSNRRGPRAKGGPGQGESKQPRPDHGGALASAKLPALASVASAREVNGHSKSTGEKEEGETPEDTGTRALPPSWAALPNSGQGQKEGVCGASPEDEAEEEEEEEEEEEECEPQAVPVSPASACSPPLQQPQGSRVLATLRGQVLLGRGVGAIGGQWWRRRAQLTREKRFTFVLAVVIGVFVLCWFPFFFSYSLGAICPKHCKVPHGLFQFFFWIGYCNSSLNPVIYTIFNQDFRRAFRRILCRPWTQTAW
Excerpt: as §1, §2, §3, §4, §5

H1 = molecular target: T7, H1 (Homo sapiens, UniProt P35367); assay: PDSP binding assay, H1; details: PDSP, mean, n = 2; read-out: Ki, H1
T7 construct: NIMH Psychoactive Drug Screening Program (PDSP)
Excerpt: as §1, §2, §3, §4, §5

HeLa cells = assay: MTT cell viability assay, HeLa cells; type: cell-based, human; details: 12 h, MTT
Procedure: (§6) The 1321N1 astrocytoma (hP2Y6R-overexpressing) and HeLa (non-transfected) cell lines were cultured in Dulbecco’s modified Eagle’s medium (DMEM, HyClone, Logan, UT, USA) supplemented with 5% heat-inactivated fetal bovine serum (FBS, HyClone, UT, USA), 100 U/mL penicillin, and 100 µg/mL streptomycin in 5% CO2 at 37 °C. The cell viability was determined using an MTT kit (Sigma, St. Louis, MO, USA) according to the manufacturer’s instructions. Briefly, 1 × 10^4 cells were seeded in triplicate in 96-well plates. The hP2Y6R-astrocytoma and HeLa cells were treated with a P2Y6R agonist and antagonists at a range of concentrations and incubated for 12 h. The cell viability was measured at 490 nm using a SpectraMax-M5 Spectrometer (Molecular Devices, San Jose, CA, USA).

[2] = system: hP2Y6R-1321N1 human astrocytoma cells; assay: MTT cell viability assay, hP2Y6R-1321N1 astrocytoma cells; type: cell-based; details: P2Y6R-astrocytoma, 12 h, MTT
Procedure: as §6

T1 sequence (Q15077 whole entry): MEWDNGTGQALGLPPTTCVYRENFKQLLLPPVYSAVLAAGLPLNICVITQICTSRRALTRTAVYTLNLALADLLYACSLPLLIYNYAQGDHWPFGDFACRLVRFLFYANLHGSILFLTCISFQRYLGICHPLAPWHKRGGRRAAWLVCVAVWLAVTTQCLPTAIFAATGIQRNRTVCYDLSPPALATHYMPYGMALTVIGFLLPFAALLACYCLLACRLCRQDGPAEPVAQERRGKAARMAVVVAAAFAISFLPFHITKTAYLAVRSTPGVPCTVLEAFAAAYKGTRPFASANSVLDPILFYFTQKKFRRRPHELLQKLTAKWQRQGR
T7 sequence (P35367 whole entry): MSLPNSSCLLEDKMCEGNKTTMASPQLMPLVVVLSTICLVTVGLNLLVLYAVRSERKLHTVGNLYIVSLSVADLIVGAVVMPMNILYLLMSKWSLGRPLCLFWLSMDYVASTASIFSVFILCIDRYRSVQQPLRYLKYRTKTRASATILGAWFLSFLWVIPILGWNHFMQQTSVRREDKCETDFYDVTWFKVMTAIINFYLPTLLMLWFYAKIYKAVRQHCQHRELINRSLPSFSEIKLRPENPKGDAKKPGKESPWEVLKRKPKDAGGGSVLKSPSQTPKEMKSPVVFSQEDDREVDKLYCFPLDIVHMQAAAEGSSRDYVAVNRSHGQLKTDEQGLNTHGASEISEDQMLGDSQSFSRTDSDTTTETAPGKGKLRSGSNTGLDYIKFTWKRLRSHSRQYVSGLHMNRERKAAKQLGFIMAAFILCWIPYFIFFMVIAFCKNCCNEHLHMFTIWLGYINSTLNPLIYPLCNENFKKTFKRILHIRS
T5 sequence (P28221 whole entry): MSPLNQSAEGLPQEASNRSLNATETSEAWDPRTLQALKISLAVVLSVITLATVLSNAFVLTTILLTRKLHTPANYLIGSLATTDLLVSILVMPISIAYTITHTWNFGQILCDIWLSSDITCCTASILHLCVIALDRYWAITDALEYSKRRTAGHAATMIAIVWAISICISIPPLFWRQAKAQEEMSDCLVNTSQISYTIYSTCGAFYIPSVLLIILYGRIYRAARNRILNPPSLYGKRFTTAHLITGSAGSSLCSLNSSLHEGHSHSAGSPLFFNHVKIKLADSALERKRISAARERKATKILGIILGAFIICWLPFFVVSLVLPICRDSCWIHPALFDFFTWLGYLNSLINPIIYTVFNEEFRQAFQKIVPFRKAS
T4 sequence (P21918 whole entry): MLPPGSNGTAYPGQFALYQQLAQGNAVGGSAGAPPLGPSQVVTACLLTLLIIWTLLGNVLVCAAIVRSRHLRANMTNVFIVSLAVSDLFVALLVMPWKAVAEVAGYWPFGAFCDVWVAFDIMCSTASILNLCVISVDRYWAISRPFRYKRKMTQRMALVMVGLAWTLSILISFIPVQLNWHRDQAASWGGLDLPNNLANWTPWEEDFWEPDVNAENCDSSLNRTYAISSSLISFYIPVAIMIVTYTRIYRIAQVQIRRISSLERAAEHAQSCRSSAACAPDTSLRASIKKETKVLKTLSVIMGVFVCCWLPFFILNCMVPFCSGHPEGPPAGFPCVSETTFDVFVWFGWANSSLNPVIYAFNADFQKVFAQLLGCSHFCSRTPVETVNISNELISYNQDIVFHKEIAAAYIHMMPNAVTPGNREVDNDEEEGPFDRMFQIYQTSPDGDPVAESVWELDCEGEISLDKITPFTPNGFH

Structure (SMILES): NCCCCCCC#Cc1ccc2c(c1)C=C([N+](=O)[O-])C(C(F)(F)F)O2 (stereo not drawn) [Compound 29]
IC50 (hP2Y6R): 20 ± 5.1 µM

Structure (SMILES): CC(C)(C)C(=O)NCCCCCCCC#Cc1ccc2c(c1)C=C([N+](=O)[O-])C(C(F)(F)F)O2 (stereo not drawn) [Compound 31]
off-target interactions at 45 target sites [1]: only two weak interactions | Ki (α2A): 3.5 µM | IC50 (hP2Y6R): 17.3 ± 5.2 µM

Structure (SMILES): CC(C)(C)OC(=O)NCCCCCCCCC#Cc1ccc2c(c1)C=C([N+](=O)[O-])C(C(F)(F)F)O2 (stereo not drawn) [Compound 33]
IC50 (hP2Y6R): 45.4 ± 17.7 µM

Structure (SMILES): NCCCCCCCCC#Cc1ccc2c(c1)C=C([N+](=O)[O-])C(C(F)(F)F)O2 (stereo not drawn) [Compound 34]
IC50 (hP2Y6R): 20 ± 5.2 µM

Structure (SMILES): O=C(O)CCOCCOCCOCCOCC#Cc1ccc2c(c1)C=C([N+](=O)[O-])C(C(F)(F)F)O2 (stereo not drawn) [Compound 35]
IC50 (hP2Y6R): 63.3 ± 30 µM

Structure (SMILES): NCCCCCCCC#Cc1cccc2c1OC(C(F)(F)F)C([N+](=O)[O-])=C2 (stereo not drawn) [Compound 38]
IC50 (hP2Y6R): 13 ± 3.9 µM

Structure (SMILES): CC(C)(C)OC(=O)NCCCCCCCCC#Cc1cccc2c1OC(C(F)(F)F)C([N+](=O)[O-])=C2 (stereo not drawn) [Compound 39]
IC50 (hP2Y6R): 23.8 ± 6.8 µM

Structure (SMILES): NCCCCCCCCC#Cc1cccc2c1OC(C(F)(F)F)C([N+](=O)[O-])=C2 (stereo not drawn) [Compound 40]
IC50 (hP2Y6R): 20 to 30 µM and 34.8 µM

Structure (SMILES): O=C(O)CCOCCOCCOCCOCC#Cc1cccc2c1OC(C(F)(F)F)C([N+](=O)[O-])=C2 (stereo not drawn) [Compound 41]
IC50 (hP2Y6R): > 50 µM

Structure (SMILES): O=[N+]([O-])C1=Cc2cc(F)ccc2OC1C(F)(F)F (stereo not drawn) [MRS4830, 6-fluoro-3-nitro-2-(trifluoromethyl)-2H-chromene]
% survival (HeLa cells; 0.1 µM): 94% | % survival (HeLa cells; 0.5 µM): 91% | % survival (HeLa cells; 1 µM): 93% | % survival (HeLa cells; 5 µM): 87% | % survival (HeLa cells; 10 µM): 83% | % survival ([2]; 0.1 µM): 100% | % survival ([2]; 0.5 µM): 102% | % survival ([2]; 1 µM): 101% | % survival ([2]; 5 µM): 96% | % survival ([2]; 10 µM): 89%

More lines, in order of falling IC50 (hP2Y6R), values ahead:

IC50 (hP2Y6R): 12.4 ± 1.3 µM
Structure (SMILES): NCCCCCC#Cc1ccc2c(c1)C=C([N+](=O)[O-])C(C(F)(F)F)O2 (stereo not drawn) [Compound 27]

IC50 (hP2Y6R): 10.5 ± 6.5 µM
Structure (SMILES): CC(C)(C)OC(=O)NCCCCCCC#Cc1ccc2c(c1)C=C([N+](=O)[O-])C(C(F)(F)F)O2 (stereo not drawn) [Compound 28]

IC50 (hP2Y6R): 6.37 ± 1.82 µM
Structure (SMILES): NCCCCCCCC#Cc1ccc2c(c1)C=C([N+](=O)[O-])C(C(F)(F)F)O2 (stereo not drawn) [Compound 32]

IC50 (hP2Y14R): 31.2 ± 12.2 µM | Ki (D5): 4.2 µM | Ki (5-HT1D): 3.5 µM | Ki (α2A): 5.2 µM | Ki (α2B): 4.8 µM | IC50 (hP2Y6R): 4.96 ± 1.96 µM | fold lower affinity compared to 30 (hP2Y6R; hP2Y6R IC50 ratio): 31 fold | Ki (H1): 7.3 µM
Structure (SMILES): CC(C)(C)OC(=O)NCCCCCCCC#Cc1cccc2c1OC(C(F)(F)F)C([N+](=O)[O-])=C2 (stereo not drawn) [Compound 37]

IC50 (hP2Y6R): 4.79 ± 1.45 µM
Structure (SMILES): O=[N+]([O-])C1=Cc2cccc(C#CCCCCCCCCBr)c2OC1C(F)(F)F (stereo not drawn) [Compound 36, 8-(10-Bromodec-1-yn-1-yl)-3-nitro-2-(trifluoromethyl)-2H-chromene]
